# Measurements published in patent US20240309015A1, “Methods for the Treatment of Fibrotic Disease” (SHY Therapeutics, LLC, priority 2021, published 2024).
# How the values were obtained:
# JNK = JNK Activation Assay in PANC-1; type: cell-based, human; parameters: key: Y = yes; N = No; details: at 10 μM
# Method: Cell lines: Human tumor-derived pancreatic cancer cell line Panc-1 and mouse muscle myoblast C2C12 were purchased from American Type Culture Collection and grown in complete DMEM-High Glucose, supplemented with penicillin (100 U/mL), streptomycin (100 μg/mL), and 10% heat-inactivated FBS at 37° C. in a humidified incubator with 5% CO2.
# Method: Cells were plated at 350000 cells/well density in a 12-well plate, allowed 3 hours to adhere to the plate, then starved in the appropriate medium in the presence of 0.5% FBS overnight. The small molecules to be tested were added to the cells in the final concentration of 10 μM in the presence of 0.3% DMSO for 3 hours incubation at 37° C. For IC50 value determination, serial dilutions of compounds were added to cells under the same conditions. […] Protein concentration was assessed by BCA protein assay (Thermo Scientific). Phosphorylation level of JNK was determined by western blot.
# Western blot protocol: Equal amounts of protein (15-50 μg) were separated by SDS-PAGE and transferred to nitrocellulose membranes (Invitrogen by Thermo Fisher Scientific). […] Membranes were blocked with 10% milk and phosphorylation levels of Smad2, Smad3, JNK and p38 were assessed by incubating overnight at 4° C. with the following antibody: Phospho-SAPK/JNK (Thr183/Tyr185), from Cell Signaling Technology. […]
# KRas G12D mutant = experiment: Ras GTP Binding Domain Inhibition Assay, KRas G12D mutant; details: at 20 μM; for KRas G12D mutant + SOS: % inh.: with SOS; for KRas G12D mutant: % inh.: without SOS
# Summary of the method: (§1)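 His-tagged GTPases, 10-30 μg/mL in Tris-HCl buffer (pH 7.4 or 7.0, MgCl2, DTT), were immobilised on nickel-coated wells overnight at 4° C. Compounds were added at 20 μM or as serial dilutions for IC50 in 1% DMSO for 3 h at room temperature, ±Sos(556-1049) in the final hour. Bound Cy3/Cy5-GTP (100 nM, 45 min) was read after washing.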
# Rho-A = experiment: Ras GTP Binding Domain Inhibition Assay, Rho-A; details: at 20 μM
# Summary of the method: as §1
smiles,measurement,setting,value
"CO[C@H]1CC[C@@H](Nc2nc(-c3nccn3C)nc3sc(-c4ccn(C)n4)c(-c4ccccc4)c23)C1 (racemic) [Compound 5, rac-N-((1R,3S)-3-Methoxycyclopentyl)-2-(1-methyl-1H-imidazol-2-yl)-6-(1-methyl-1H-pyrazol-3-yl)-5-phenylthieno[2,3-d]pyrimidin-4-amine]",Activation of JNK in PANC-1,JNK,Y
same,KRas G12D mutant + SOS: % inh.,KRas G12D mutant; Table 7,C (C = 46-75% inhibition)
same,KRas G12D mutant + SOS: % inh.,KRas G12D mutant; Table 8,C (C = 46-75% inhibition)
same,KRas G12D mutant: % inh.,KRas G12D mutant; Table 7,A (A = 1-25% inhibition)
same,KRas G12D mutant: % inh.,KRas G12D mutant; Table 8,A (A = 1-25% inhibition)
same,Rho-A + SOS: % inh.,Rho-A; with SOS,D (D = 76-100% inhibition)
same,Rho-A: % inh.,Rho-A; without SOS,C (C = 46-75% inhibition)
